Source: patent publication US20070293572A1, “Anti-Fatigue Composition” (priority 2004, published 2007)

Test system: Sprague-Dawley male rats
Experiment: Treadmill Test using Young Rat (1)
Type: in vivo
Conditions: oral 100 mg/kg; for Extension of maximum running time (result in words): before vs three hours after administration; for Extension of maximum running time: maximum running time three hours after vs before administration, 7 to 10 week old rats, n=20
Procedure: Treadmill Test using Young Rat (1)
Using Sprague-Dawley malerats (7 to 10 week old, n=20) anti-fatigue effects brought about by reduced coenzyme Q10 alone (about 2% of oxidized coenzyme Q10 included), carnitine alone, and combination use of reduced coenzyme Q10 and carnitine were evaluated with a treadmill. In the test, rats were run at a speed of 10 m/min using a treadmill apparatus (model NK-73-4 made by Natume Seisakusho Co., Ltd.), and the speed was increased stepwise, by 5 m/min every 3 minutes, and the time when the rats became unable to run (maximum running time) was measured.
As a substance to be tested, a 0.5% sodium carboxymethylcellulose (CMC-Na) aqueous solution of reduced coenzyme Q10 (about 2% of oxidized coenzyme Q10 included) or carnitine (reduced coenzyme Q10 or carnitine/CMC-Na=10 mg/ml) was prepared and the solution was orally administered to rats at a dose of 100 mg/kg. Rats were divided into four groups of a solvent administered group, reduced coenzyme Q10 only administered group, a carnitine only administered group, and a reduced coenzyme Q10 and carnitine combined group. The maximum running time was measured before and three hours after the administration and the time extended from the maximum running time was calculated. A 0.5% CMC-Na aqueous solution was administered to the control group.

Row | Structure (SMILES) | Extension of maximum running time (result in words) | Extension of maximum running time [S]
1 | C[N+](C)(C)CC(O)CC(=O)[O-] (stereo not shown) [Carnitine, 4-trimethylamino-3-hydroxybutyric acid] | no extension of the maximum running time | −0 ± 151
2 | COc1c(O)c(C)c(C/C=C(\C)CC/C=C(\C)CC/C=C(\C)CC/C=C(\C)CC/C=C(\C)CC/C=C(\C)CC/C=C(\C)CC/C=C(\C)CC/C=C(\C)CCC=C(C)C)c(O)c1OC [Reduced coenzyme Q10, reduced coenzyme Q10] | no extension of the maximum running time | −22 ± 71
